# Columns and labels:
# [1] = test system: Human HaCaT keratinocyte cells; test: Protection against polycyclic aromatic hydrocarbons (BaP) in the presence of UVA, neutral red uptake; assay type: cell-based; settings: for % Protection against BaP: individual active, UVA-BaP
# Text: Polycyclic aromatic hydrocarbons (PAHs) are a class of mutagenic and tumorigenic environmental contaminants. PAHs are widespread in the environment produced from incomplete combustion of natural materials and tobacco smoke (Connell, D. W.; Hawker, D. W.; Warne, M. J.; Vowles. P. P.; Polycyclic aromatic hydrocarbons (PAHs). In Introduction into Environmental Chemistry (McCombs. K., and Starkweather, A. W., eds), 1997, pp. 205-217, CRC Press LLC, Boca Raton, Fla. 2. Shaw, G. R.; Connell, D. W.: Prediction and monitoring of the carcinogenicity of polycyclic aromatic compounds (PACs). Rev. Environ. Contam. Toxic., 1994, 135, 1-62.) PAHs themselves are biologically inert and require metabolic activation. in order to exert genotoxicity PAHs absorb light in the UVA region, react with oxygen or other molecules to generate reactive intermediates (Yu H, Xia Q, Yan J, et al. Photoirradiation of polycyclic aromatic hydrocarbons with UVA light—a pathway leading to the generation of reactive oxygen species, lipid peroxidation, and dna damage. Int J Environ Res Public Health. 2006; 3:348-354) Thus, PAHs can be “activated” by light irradiation to cause photo-induced cytotoxicity. Thus photoirradiation of PAHs with UVA irradiation represents a pollutant which causes cytotoxicity and DNA damage.
# Human HaCaT keratinocyte cells were seeded at a density of 1×10^4 cells/well in 96 well plates. Cells were allowed to adhere for overnight. They were pretreated with Benzo(a)pyrene a PAH at 0.5 mM concentration along with different concentrations of plant actives for 50 minutes, exposed to UVA at an intensity of 17 Joules m2. Cells were washed with sterile buffer and fresh culture medium (2% of FBS) with respective concentrations of plant actives were added followed by incubation for 24 hours at 37° C. in a CO2 incubator. Neutral Red (25 μg/mL) (3-amino-7-dimethylamino-2-methylphenazine hydrochloride), was added to the cells for 3 hours. The uptake of NR by the cells was determined by lysing the cells and reading the absorbance at 540 nm in a Tecan microplate reader (TECAN Ltd, Männedorf, Switzerland)
# [2] = test system: Human HaCaT keratinocyte cells/mouse fibroblast cells; test: ROS assay (DCFH-DA) after exposure to heavy metals, UVA or UVB; assay type: cell-based
# Text: A cell permeable, non-fluorescent dye, 2′,7′-dichlorofluorescein diacetate (DCFH-DA) enters the cell and the acetate group on DCFH-DA is cleaved by cellular esterases, trapping the non-fluorescent DCFH inside the cell. Subsequent oxidation by reactive oxygen species generated in the cells, yields the fluorescent DCF which can be detected at 485/520 Ex:Em wavelength. The scavenging activity of sample is indicated by the decrease in fluorescence when compared to the control without antioxidant.
# Human HaCaT keratinocyte cells/mouse fibroblast cells were maintained in DMEM containing 25 mM glucose with 10% heat-inactivated fetal calf serum with antibiotics at 37° C. and 5% CO2. When the cells were 70-80% confluent, they were trypsinized, washed and seeded in 96 well plates at a density seeded at a density of 5×10^4 cells/well. Cells were allowed to adhere for overnight. Cells were pretreated with varying non toxic concentrations of different plant actives for 60 minutes before exposing to the pollutant. Cells were exposed to the following pollutants in the presence of plant actives.
# UVA intensity of 15 Joules/m2 for 60 mins,
# UV-B intensity of 4.6 Joule/m2 for 10 mins
# Heavy metals (Cobalt chloride and Lead Nitrate at 0.25 mm each) for 6 hours
# Intracellular ROS was determined after the specific treatment period by adding freshly prepared DCFH-DA reagent to all the wells at a concentration of 10 μg/well and incubated at 37° C. for 30 mins. The fluorescence was recorded at a wavelength of 485:520 (Ex:Em) nm in BMG FluoStar Optima microplate reader.
# [3] = test system: superoxide dismutase (SOD); test: Antioxidant assay: superoxide dismutase (SOD) activity in cell lysate, WST-1 method; assay type: cell-based, Human; settings: UV-exposed keratinocytes
# Method: (§1) Cellular anti-oxidants are depleted by pollutants. The ability of plant actives to increase these anti-oxidant enzymes in the cells was studied in vitro. Human HaCaT keratinocyte cells were seeded at a density of 5×10^5 cells, well in 6 well plates. The cells were pretreated for one hour with plant actives and exposed to UVA intensity of 17 Joules/m2 for 50 mins. Cells were washed with sterile buffer and fresh culture medium (2% of FBS) with respective concentrations of plant actives were added followed by incubation for 24 hours at 37° C. in a CO2 incubator. Cell lysate were prepared and superoxide dismutase (SOD) levels and glutathione peroxidase (GPx) were estimated.
# The activity of SOD in the cell lysate was measured by WST-1 method using a kit as per the manufacturer's instructions (Elabsciences). Xanthine Oxidase (XO) can catalyze WST-1 react with O2. —to generate a water-soluble formazan dye. SOD can catalyze the disproportionation of superoxide anions, so the reaction can be inhibited by SOD, and the activity of SOD is negatively correlated with the amount of formazan dye. Therefore, the activity of SOD can be determined by the colorimetric analysis of WST-1 products.
# [4] = test system: glutathione peroxidase (GPx); test: Antioxidant assay: glutathione peroxidase (GPx) activity in cell lysate; assay type: cell-based, Human; settings: UV-exposed keratinocytes
# Method: as §1
# Glutathione peroxidase activity was determined according to the method of Hafeman et al. (1974). Glutathione peroxidase degrades H2O2 in presence of glutathione (GSH) thereby depleting it. GSH remaining is measured using DTNB, which gives a colored complex.
# To a volume of 100 μl of cell lysate, 0.2 mM GSH, 0.05 mM H2O2 and 1 mM NaN3 in a total volume of 250 μl with 1M sodium phosphate buffer (pH 7.0). The reaction was incubated at 37° C. for 10 min and stopped by adding 50 μl of 25% TCA. […] The intensity of yellow color formation was measured at 412 nm after incubation at 37° C. for 10 min The enzyme activity was expressed as units/mg protein.
# [5] = test system: IL-8; test: Anti-inflammatory activity: IL8 in assay supernatants by ELISA; assay type: cell-based
# Method: IL8 in the assay supernatants were measured using Duoset ELISA kit (R & D systems, Cat No. DY208)
# [6] = DPPH free radical scavenging assay
# Text: Reactive oxygen species (ROS) including superoxide, hydroxyl, peroxyl, and alkoxy radicals are produced by normal metabolic processes. Under normal condition, these free radicals are scavenged by the cellular anti-oxidants and remain in equilibrium. Radiations, toxins and pollutants increase the ROS which can induce oxidative damage to biomolecules such as lipids, nucleic acids, proteins and carbohydrates. These ROS induced damage causes skin irritation, inflammation, ageing, cancer and many other diseases, α, α-diphenyl-β-picrylhydrazyl (DPPH) free radical scavenging method is one of the first approach for evaluating the antioxidant potential of a compound.
# Reagents: 0.1 mM of DPPH in ethanol, 0.1M phosphate buffered saline (pH 7.4)
# DPPH is a stable free radical in a methanolic solution with an absorbance at 520 nm. If the free radicals are scavenged by an anti oxidant molecule, the resulting solution appears yellow. The hydrogen atoms or electrons donation ability of the extracellular metabolite was measured by the bleaching of purple coloured DPPH methanol solution.
# Different concentrations of various plant actives were diluted in methanol. For the DPPH radical scavenging assay, 20 μL of different concentration of sample was mixed with 180 μL of DPPH in methanol in a 96 well plate following the method as described earlier (Clarke et al., 2013). The plate was kept in the dark for 15 min. after which the absorbance of the solution was measured at 540 nm using a microplate reader (TECAN Ltd, Männedorf. Switzerland). Blanks (DMSO, methanol) and standard (TBHQ solution in methanol) were recorded simultaneously. The extracts were screened with variable concentrations to establish the inhibition concentration (IC50, the concentration reducing DPPH absorbance by 50%).
# The free radical scavenging activity was calculated as follows.
# [formula] Where, B=Absorbance of reference solution (OD of DPPH) C=Absorbance of reference solution blank (OD of Methanol only) S=Absorbance of test solution C=Absorbance of test solution blank
# [7] = test system: Collagenase Type IV from Clostridium histolyticum; test: Anti-collagenase activity (DQ gelatin, fluorescence); assay type: biochemical
# Text: Collagenase is one of the matrix metalloprotease, which digest collagen and other components of the extra cellular matrix (ECM). The ECM serves as a scaffold to stabilize the skin structure, and also helps in proliferation and metabolic functions of the skin cells. Loss of collagen leads to wrinkles and sagging of skin. The principle of the assay of collagenase inhibition is based on the fact that the substrate DQ™ gelatine is conjugated to fluorecein—a fluorescent compound. In DQ™ gelatine, fluorescence is quenched. DQ™ gelatine is efficiently digested by collagenases to yield a fluorescent compound which can be measured. The increase in fluorescence is proportional to enzyme activity. In the presence of an anti-collagenase compound the amount of fluorescence will be decreased for a fixed concentration of enzyme and substrate.
# Collagenase Enzyme assay kit (Enzchek® collagenase, gelatinase assay kit, Invitrogen, USA)
# The assay was performed in a 96 well black microtitre plate. Type IV from Clostridium histolyticum with DQ gelatin as substrate was used for the assay. Different concentrations of various plant actives were pre incubated with 20 µl of gelatin substrate (12.5 µg/ml). 100 µl of the Collagenase enzyme solution (final concentration—0.4 U/ml) was added and the fluorescence intensity was measured at […] after 30 minutes. Enzyme activity of control (buffer) was recorded
# The percentage inhibition is calculated as follows:—
# [formula] B—Fluorescence in the presence of enzyme. BC—Fluorescence in the absence of enzyme activity T—Fluorescence of enzyme activity in the presence of inhibitor TC—Fluorescence of the inhibitor alone
compound,measurement,setting,value
"Oc1cc(O)cc(/C=C/c2ccc(O)cc2O)c1 [Oxyresveratrol, oxyresveratrol]",protection against UVA+BaP,[1]; concentrations of 3.12-12.5 μg/ml,dose dependant protection
same,% Protection against BaP,[1]; 6.25 μg/ml,28.04%
same,ROS generated by exposure to UVA,[2]; UVA 60 mins,reduced the ROS
same,ROS generated by exposure to UVB,[2]; UVB 10 mins,reduced the ROS
same,ROS generated by exposure to heavy metals,[2]; heavy metals (cobalt chloride and lead nitrate) 6 hours,reduced the ROS
same,superoxide dismutase activity,[3],restored normal enzyme activity
same,superoxide dismutase activity,[3]; listed as 95% oxyresveratrol,dose dependant increase
same,glutathione peroxidase activity,[4],restored normal enzyme activity
same,glutathione peroxidase activity,[4]; listed as 95% oxyresveratrol,dose dependant decrease
same,inhibition at 3.125 µg/mL,[5]; 3.125 μg/ml,13.3%
same,inhibition at 6.25 µg/mL,[5]; 6.25 μg/ml,18.4%
same,DPPH radical scavenging % inhibition,[6]; 0.3125 μg/ml,22.9%
same,DPPH radical scavenging % inhibition,[6]; 0.625 μg/ml,42.07%
same,DPPH radical scavenging % inhibition,[6]; 1.25 μg/ml,68.63%
same,DPPH radical scavenging % inhibition,[6]; 2.5 μg/ml,77.89%
same,DPPH radical scavenging % inhibition,[6]; 5.00 μg/ml,84.14%
same,DPPH radical scavenging IC50,[6]; concentration reducing DPPH absorbance by 50%,0.61 µg/mL
same,Anti-collagenase activity % inhibition,[7]; 12.5 μg/ml,0.05%
same,Anti-collagenase activity % inhibition,[7]; 25 μg/ml,9.93%
same,Anti-collagenase activity % inhibition,[7]; 50 μg/ml,41.19%
same,Anti-collagenase activity % inhibition,[7]; 100 μg/ml,80.92%
"COc1cc(/C=C/c2ccc(O)cc2)cc(OC)c1 [Pterostilbene, pterostilbene]",% Protection against BaP,[1]; 2.5 μgml,No activity
"COc1cc(CCC(=O)CC(=O)CCc2ccc(O)c(OC)c2)ccc1O [Tetrahydrocurcumin, tetrahydrocurcumin]",% Protection against BaP,[1]; 5 μg/ml,No activity
same,inhibition at 12.5 µg/mL,[5]; read-out: % inhibition of IL-8,6.07%
same,inhibition at 25 µg/mL,[5]; read-out: % inhibition of IL-8,11.7%
